Laboratory results: patent publication US11198691B2, “N-((het)arylmethyl)-heteroaryl-carboxamides compounds as kallikrein inhibitors” (KalVista Pharmaceuticals Limited, priority 2014, dated 2021)

These compounds were tested against Human FXIa (Homo sapiens (Human), UniProt P03951) (assay: Determination of the % inhibition for FXIa). Settings: 40 μM test compound, 25° C., substrate Z-Gly-Pro-Arg-AFC.
Type: biochemical
Protocol: Determination of the % inhibition for FXIa
Human FXIa (Enzyme Research Laboratories) was incubated at 25° C. with the fluorogenic substrate Z-Gly-Pro-Arg-AFC and 40 μM of the test compound. Residual enzyme activity (initial rate of reaction) was determined by measuring the change in […].

Human FXIa, sequence (P03951 388-625): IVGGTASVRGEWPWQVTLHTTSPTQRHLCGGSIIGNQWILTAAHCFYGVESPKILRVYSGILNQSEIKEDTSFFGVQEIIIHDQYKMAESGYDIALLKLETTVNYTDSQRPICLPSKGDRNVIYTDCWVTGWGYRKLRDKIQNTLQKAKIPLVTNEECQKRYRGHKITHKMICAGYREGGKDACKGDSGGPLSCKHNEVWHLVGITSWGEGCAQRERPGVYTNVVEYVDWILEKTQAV
Human FXIa, sequence (P03951 19-387 partner): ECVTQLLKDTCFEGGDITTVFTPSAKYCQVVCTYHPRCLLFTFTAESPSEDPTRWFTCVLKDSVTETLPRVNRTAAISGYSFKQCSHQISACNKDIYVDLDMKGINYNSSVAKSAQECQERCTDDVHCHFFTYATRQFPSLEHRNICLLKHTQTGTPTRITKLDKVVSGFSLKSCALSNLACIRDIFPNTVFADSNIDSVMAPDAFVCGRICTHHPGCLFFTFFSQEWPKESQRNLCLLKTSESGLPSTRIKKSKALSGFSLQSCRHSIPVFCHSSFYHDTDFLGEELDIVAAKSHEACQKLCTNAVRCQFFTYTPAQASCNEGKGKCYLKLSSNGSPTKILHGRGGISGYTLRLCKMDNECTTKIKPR

Point of comparison: `NC(=O)c1cccc(CNC(=O)c2cn(Cc3ccc(Cn4ccccc4=O)cc3)nc2C2CC2)c1` [Example 49, N-[(3-carbamoylphenyl)methyl]-3-cyclopropyl-1-({4-[(2-oxopyridin-1-yl)methyl]phenyl}methyl)pyrazole-4-carboxamide], “% Inhibition @ 40 μM (human FXIa)” value 0%. Against it:
- Nc1nn(Cc2ccc(Cn3ccccc3=O)cc2)cc1C(=O)NCc1ccc(OC(F)(F)F)cc1 [Example 58, 3-amino-1-({4-[(2-oxopyridin-1-yl)methyl]phenyl}methyl)-N-{[4-(trifluoromethoxy)phenyl]methyl}pyrazole-4-carboxamide] — the same, 0%
- COc1cccc(CNC(=O)c2cn(Cc3ccc(Cn4ccccc4=O)cc3)nc2C2CC2)c1F [Example 52, 3-cyclopropyl-N-[(2-fluoro-3-methoxyphenyl)methyl]-1-({4-[(2-oxopyridin-1-yl)methyl]phenyl}methyl)pyrazole-4-carboxamide] — higher, 1%
